For 3 compounds, half-life, Assay B: GABAA α5β3γ2 Emax vs GABA and EC50 results are on record in patent US10941137B2, “Difluoromethyl-phenyl triazoles” (Boehringer Ingelheim International GmbH, priority 2018, dated 2021).

In general, pEC50 refers to −log10 of the EC50, conventionally taken in molar units.

pEC50: −log10 of the molar value.

A short description of data set [1]: Metabolic stability in human liver microsomes (Human MST). Type of data set: in vitro ADME. The settings on record: pooled human liver microsomes, pH 7.6; human liver microsomes 1 mg/mL, 1 μM compound, NADPH 1 mM, 37° C.; read-out: Human MST t1/2. A digest of the protocol: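 Pooled human liver microsomes (1 mg/mL protein) with compound at 1 µM, 0.1 M TRIS pH 7.6 and 5 mM MgCl2, at 37 °C. Reaction started with 1 mM NADPH and quenched in solvent at several time points. Parent compound measured by LC-MS/MS; t½ from slope of log concentration–time plot.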
Background: Liver microsomes are vesicles of endoplasmic reticulum, rich in cytochrome P450 enzymes.

The target in the next data set is T1, α5β2γ2 GABAA receptor (Homo sapiens, UniProt P18507+P31644).
T1 sequence (P31644 32-462): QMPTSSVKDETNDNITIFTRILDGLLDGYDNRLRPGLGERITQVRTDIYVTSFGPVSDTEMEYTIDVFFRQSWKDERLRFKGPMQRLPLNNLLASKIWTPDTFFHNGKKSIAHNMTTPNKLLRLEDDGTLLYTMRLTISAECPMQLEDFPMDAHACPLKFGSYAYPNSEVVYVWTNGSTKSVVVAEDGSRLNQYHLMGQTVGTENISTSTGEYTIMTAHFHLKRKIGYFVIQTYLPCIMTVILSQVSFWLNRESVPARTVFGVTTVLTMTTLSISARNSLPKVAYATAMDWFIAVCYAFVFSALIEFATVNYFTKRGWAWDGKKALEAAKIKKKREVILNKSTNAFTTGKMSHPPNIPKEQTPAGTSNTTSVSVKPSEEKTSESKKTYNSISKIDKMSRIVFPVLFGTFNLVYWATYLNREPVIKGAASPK
T1 sequence (P18507 40-376 limits assumed): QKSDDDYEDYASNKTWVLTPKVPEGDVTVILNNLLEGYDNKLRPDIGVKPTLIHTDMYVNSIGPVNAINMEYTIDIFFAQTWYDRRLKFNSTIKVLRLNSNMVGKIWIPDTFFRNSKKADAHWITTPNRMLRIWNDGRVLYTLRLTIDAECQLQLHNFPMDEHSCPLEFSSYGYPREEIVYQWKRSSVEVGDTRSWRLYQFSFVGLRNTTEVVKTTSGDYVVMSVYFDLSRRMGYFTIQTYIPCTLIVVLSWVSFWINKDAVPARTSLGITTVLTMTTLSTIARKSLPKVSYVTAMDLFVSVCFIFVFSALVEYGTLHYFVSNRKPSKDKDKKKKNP
As to the kind of experiment: Assay B: modulation of α5β2γ2 GABAA receptor, two-electrode voltage clamp in oocytes. Type of data set: cell-based. To be noted: for pEC50: oocytes, TEVC, co-application with GABA 0.5 μM (EC5-20), read-out: Assay B: GABAA α5β3γ2 EC50. Summed up:
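Human α5:β2:γ2 cRNA injected into oocytes at 3:1:3; TEVC currents recorded with compound co-applied with 0.5 μM GABA (EC5-20), five concentrations 0.000316–3.16 μM ascending per oocyte. Background-subtracted peak currents normalized to GABA control as % change; Hill fit gives maximal efficacy and log EC50 with 95% CI.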
On the technique in general: Two-electrode voltage clamp is typically applied to oocytes expressing channels or transporters.

On to `Cc1nnn(-c2ccc(C(F)F)cc2)c1COc1ccc(-n2cnc(C(N)=O)c2)nn1` [Example 27, 1-[6-({1-[4-(difluoromethyl)phenyl]-4-methyl-1H-1,2,3-triazol-5-yl}methoxy)pyridazin-3-yl]-1H-imidazole-4-carboxamide], for which the half-life at 1 μM in data set [1] is more than 2.17 h. For the same compound, at α5β2γ2 GABAA receptor, the Assay B: GABAA α5β3γ2 Emax vs GABA was -35.2% and the pEC50 was 9.40.

For the compound `Cc1nnn(-c2ccc(C(F)F)cc2)c1COc1ccc(-n2cnc(CN)c2)nn1` [Example 35, {1-[6-({1-[4-(difluoromethyl)phenyl]-4-methyl-1H-1,2,3-triazol-5-yl}methoxy)pyridazin-3-yl]-1H-imidazol-4-yl}methanamine], in data set [1], the half-life at 1 μM is more than 2.17 h. Besides, on α5β2γ2 GABAA receptor, the Assay B: GABAA α5β3γ2 Emax vs GABA was -21.7% and the pEC50 is 8.68.

`Cc1nnn(-c2ccc(C(F)F)cc2)c1COc1ccc(-c2ccnc(O)c2)nn1` [Example 2, 4-[6-({1-[4-(difluoromethyl)phenyl]-4-methyl-1H-1,2,3-triazol-5-yl}methoxy)pyridazin-3-yl]pyridin-2-ol]: the half-life at 1 μM in data set [1] was more than 2.17 h. Moreover, on α5β2γ2 GABAA receptor, the Assay B: GABAA α5β3γ2 Emax vs GABA was -57% and the pEC50 was 8.22.
